ChEMBL document CHEMBL3112540, “Synthesis of halogenated 4-quinolones and evaluation of their antiplasmodial activity” (Bioorg Med Chem Lett, 2014)
The source made the active and inactive calls. No cut-off for these calls is given here.

Columns and labels:
[1] = tested on: Plasmodium falciparum; assay: Antiplasmodial activity chloroquine-resistant Plasmodium falciparum Dd2 by lactate dehydrogenase assay; type: functional, organism-based
[2] = tested on: Plasmodium falciparum; assay: Antiplasmodial activity chloroquine-sensitive Plasmodium falciparum NF54 by lactate dehydrogenase assay; type: functional, organism-based
[3] = tested on: Aspergillus flavus; assay: Antimicrobial activity against Aspergillus flavus; type: functional, organism-based
[4] = tested on: Candida albicans; assay: Antimicrobial activity against Candida albicans; type: functional, organism-based
[5] = tested on: Escherichia coli; assay: Antimicrobial activity against Escherichia coli; type: functional, organism-based
[6] = tested on: Staphylococcus aureus; assay: Antimicrobial activity against Staphylococcus aureus; type: functional, organism-based
[7] = tested on: CHO; assay: Cytotoxicity against CHO cells by MTT assay; type: cell-based; conditions: Cricetulus griseus
[8] = in vitro; conditions: hamster
Description: Selectivity index, ratio of IC50 for CHO cells to IC50 for chloroquine-sensitive Plasmodium falciparum NF54

Row | Structure (SMILES) | IC50 [1] | IC50 [2] | Activity [3] | Activity [4] | Activity [5] | Activity [6] | IC50 [7] | selectivity ratio [8]
1 | C[C@H]1[C@H](OC(=O)CCC(=O)O)O[C@@H]2O[C@@]3(C)CC[C@H]4[C@H](C)CC[C@@H]1[C@@]24OO3 [ARTESUNATE] | 0.046 µM | 0.005 µM | – | – | – | – | – | –
2 | CC(Br)(CBr)Cn1cc(Br)c(=O)c2ccccc21 (stereo unspecified) | – | 35.2 µM | inactive | inactive | inactive | inactive | – | –
3 | CC[C@H]1CN2CCc3cc(OC)c(OC)cc3[C@@H]2C[C@@H]1C[C@H]1NCCc2cc(OC)c(OC)cc21 [EMETINE] | – | – | – | – | – | – | 0.092 µM | –
4 | CC(Br)(CBr)Cn1cc(Br)c(=O)c2ccc(Cl)cc21 (stereo unspecified) | 4.02 µM | 3.18 µM | inactive | inactive | inactive | inactive | 31.8 µM | 10
